The text below walks through data of patent US20260248720A1, “COMPOSITIONS SUITABLE FOR THE ADMINISTRATION OF CREATINE ESTERS” (priority 2023, published 2026).

This data set in a line: Chemical stability of DCE in the particulate emulsion (HPLC/UV). The class given is physicochemical. How it is done: The chemical stability of DCE in the particulate emulsion was monitored using an HPLC/UV method at 4° C. and at room temperature.
[1] abbreviates: extrapolation with the slope of the decay.

In the case of `CCCCCCCCCCCCOC(=O)CN(C)C(=N)N` [DCE, dodecyl creatine ester], the “Calculation of remaining content (%) after 1 month of storage at room temperature” value under setting [1] is recorded as 99%. The “Estimation of remaining content after 18 months of storage at 4° C.” value under setting [1] is recorded as “more than 95%”. For the same compound, the “Period over which DCE is stable” value is on record as “more than 20 days” (storage at room temperature (20-25° C.)) and “more than 3 months” (storage in the fridge (4° C.)).
